The results in this text go back to patent US20260272895A1, “METHODS AND KITS FOR DELIVERY OF COMPOUNDS INTO CELLS” (Yale University, priority 2023, published 2026).

Holding throughout (format): cell-based
One experiment concerns NIH3T3 cells. The experiment is described as follows: Assessment of pharmacological effects in vitro in NIH3T3 cells (tubulin staining, multinucleated cells).
The target of another experiment is T1, Slco1a4 (Mus musculus, UniProt Q9EP96).
T1 sequence (Q9EP96 1-670): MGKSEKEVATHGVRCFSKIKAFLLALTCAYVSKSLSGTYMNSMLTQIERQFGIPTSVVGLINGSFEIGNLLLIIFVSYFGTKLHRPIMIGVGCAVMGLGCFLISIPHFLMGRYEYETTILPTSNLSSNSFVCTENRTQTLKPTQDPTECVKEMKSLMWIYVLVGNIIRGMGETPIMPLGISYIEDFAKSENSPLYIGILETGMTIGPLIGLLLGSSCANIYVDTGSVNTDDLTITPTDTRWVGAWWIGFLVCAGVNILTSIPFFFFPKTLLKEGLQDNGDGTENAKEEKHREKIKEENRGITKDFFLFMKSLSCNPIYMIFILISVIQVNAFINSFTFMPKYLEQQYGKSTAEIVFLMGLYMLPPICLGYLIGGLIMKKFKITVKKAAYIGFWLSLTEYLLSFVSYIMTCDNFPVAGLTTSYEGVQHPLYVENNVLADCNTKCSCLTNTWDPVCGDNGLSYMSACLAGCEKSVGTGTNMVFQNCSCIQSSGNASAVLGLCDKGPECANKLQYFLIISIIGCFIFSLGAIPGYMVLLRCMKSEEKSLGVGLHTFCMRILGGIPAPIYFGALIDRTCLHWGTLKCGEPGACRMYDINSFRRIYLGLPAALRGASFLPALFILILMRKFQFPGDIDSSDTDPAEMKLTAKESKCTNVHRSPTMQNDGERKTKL
The experiment is described as follows: Compound uptake in HEK293 cells transfected with Slco1a4. Set-up: FLAG; expressed in transfected cells. Particulars: concentration not given. The protocol: (§1) HEK293 cells are cultured and seeded at ~60% confluency in 24-well plates and are transiently transfected with 250 ng of a candidate transporter and 1 μL transfection reagent (JetPRIME). After 2 days, cells are washed and novel fluorescent probes at different concentrations are added to the transport medium and incubated at 37° C., for at least 30 minutes. To terminate the transport, cells are washed with PBS and fixed with 4% paraformaldehyde. The colocalization of probe uptake and cells expressing the transporters is investigated by immunostaining the transporter which has a fused FLAG tag, using anti-FLAG 488. Before confocal imaging, nuclei are labeled with Hoechst 33342 and cells are mounted and imaged on a Leica SP8 confocal microscope.
(§2) For in vitro experiments, HEK293 cells were cultured and seeded in 24-well plates, reaching approximately 60% confluency. For transient transfection, 250 ng of a candidate transporter plasmid and 1 μL of transfection reagent (JetPRIME) were added to the cells. After a 2-day incubation period, the cells were washed, and novel fluorescent probes were introduced into the transport medium at various concentrations. The cells were then incubated at 37° C., for a minimum of 30 minutes to allow for uptake. To stop the transport process, the cells were washed with PBS and fixed using 4% paraformaldehyde. Immunostaining of the transporter, which was fused with a FLAG tag, was performed using an anti-FLAG 488 antibody. Before confocal imaging, the cell nuclei were labeled with Hoechst 33342. Finally, the cells were mounted and imaged using a Leica SP8 confocal microscope.

A further experiment addresses T2, SLCO1A2 (Homo sapiens, UniProt P46721).
T2 sequence (P46721 1-670): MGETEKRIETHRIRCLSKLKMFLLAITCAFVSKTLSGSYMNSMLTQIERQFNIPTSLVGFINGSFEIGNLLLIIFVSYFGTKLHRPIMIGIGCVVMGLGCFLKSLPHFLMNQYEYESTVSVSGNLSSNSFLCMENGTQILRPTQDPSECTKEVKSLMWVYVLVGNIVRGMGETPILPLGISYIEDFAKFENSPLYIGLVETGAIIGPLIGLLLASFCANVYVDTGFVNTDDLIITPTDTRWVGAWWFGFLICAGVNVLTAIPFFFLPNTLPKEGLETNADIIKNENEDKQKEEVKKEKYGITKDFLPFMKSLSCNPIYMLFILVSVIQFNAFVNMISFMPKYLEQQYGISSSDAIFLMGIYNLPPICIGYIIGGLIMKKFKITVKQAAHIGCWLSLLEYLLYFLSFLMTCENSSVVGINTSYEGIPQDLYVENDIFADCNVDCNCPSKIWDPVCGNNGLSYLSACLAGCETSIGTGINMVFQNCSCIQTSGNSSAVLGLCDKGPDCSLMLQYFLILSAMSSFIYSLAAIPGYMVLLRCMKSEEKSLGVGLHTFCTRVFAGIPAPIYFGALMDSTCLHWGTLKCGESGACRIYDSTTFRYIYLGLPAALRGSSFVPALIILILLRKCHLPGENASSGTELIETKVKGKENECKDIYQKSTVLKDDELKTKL
The experiment is described as follows: Compound uptake in HEK293 cells transfected with SLCO1A2. More on the design: FLAG. Particulars: concentration not given. The protocol: as §1, §2

Molecules are shown by their SMILES.

Source text for NIH3T3 cells: Confocal microscopy of the different treatment groups allowed us to visualize Hoechst dye-labeled nuclei to quantify the proportion of cells with multinucleated phenotype which is known to occur with Colchicine treatments.

On to `COc1cc2c(c(OC)c1OC)-c1ccc(OC)c(=O)cc1[C@@H](NC(C)=O)CC2` [Colchicine], for which the alpha tubulin staining entry is reported as “equal disruption of the tubulin structure” in the experiment with NIH3T3 cells (30 μM, NIH3T3 cells (FIG. 11A)) and “equal disruption of the tubulin structure” with NIH3T3 cells (100 μM, NIH3T3 cells (FIG. 11B)). In addition, the phalloidin staining entry in the experiment on NIH3T3 cells (100 μM, NIH3T3 cells (FIG. 11D)) is listed as “disruption of the tubulin structure”; in the experiment on NIH3T3 cells (NIH3T3 cells (FIG. 11C), concentration not given) it was “equal disruption of the tubulin structure”. In the experiment on NIH3T3 cells (NIH3T3 cells (FIG. 17A)), the “cell morphology / multinucleated cells” value is “changes in cell morphology and presence of multinucleated cells”. The “pattern of α-tubulin immunofluorescence” value in the experiment with NIH3T3 cells (NIH3T3 cells, 12 hours, varying concentrations (FIG. 17A)) is “diffuse labeling pattern”.

Regarding `CCN(CC)c1ccc2c(-c3ccc(S(=O)(=O)NCCNC(=O)c4ccc(Nc5nc(N(C)[C@H]6CN(C(=O)CC#N)CC[C@H]6C)c6cc[nH]c6n5)cc4)cc3S(=O)(=O)[O-])c3ccc(=[N+](CC)CC)cc-3oc2c1` [Compound 53, 5-(N-(2-(4-((4-(((3R,4R)-1-(2-cyanoacetyl)-4-methylpiperidin-3-yl)(methyl)amino)-7H-pyrrolo[2,3-d]pyrimidin-2-yl)amino)benzamido)ethyl)sulfamoyl)-2-(6-(diethylamino)-3-(diethyliminio)-3H-xanthen-9-yl)benzenesulfonate], the “uptake in Slco1a4 transfected HEK293 cells” value on Slco1a4 is “is taken up”. Moreover, at SLCO1A2, the “uptake in SLCO1A2 transfected HEK293 cells” value is recorded as “is taken up”.
